# Measurements published in patent US9499614B2, “Methods for modulating protein glycosylation profiles of recombinant protein therapeutics using monosaccharides and oligosaccharides” (AbbVie, Inc., priority 2013, dated 2016).
# Columns and labels:
# Cell Line 1 [1] = assay: 3 L laboratory-scale bioreactor culture of Cell Line 1, cell culture performance; assay type: cell-based, Chinese Hamster
# Experimental: Two recombinant Chinese Hamster Ovary (CHO) cell lines expressing two different humanized monoclonal antibodies (Antibody 1, Antibody 2) were evaluated in two different culture vessels (shaker flasks and laboratory scale bioreactors). Both cell lines were of CHO DUX-B11 origin based on a dhfr (dihydrofolate reductase) expression system. Both cell lines were cultured in the same chemically defined basal media (CDBM), with Cell Line 1 also utilizing a chemically-defined feed media (CDFM). Each of the respective media were supplemented with selected monosaccharides and oligosaccharides to evaluate their potential impact on the resulting N-glycan oligosaccharide profile. In preparing the cultures, the cell lines were serially expanded through separate seed train inoculums to generate enough cells for inoculation.
# (§1) Viable cell density (VCD) and cell viability values were measured through trypan blue exclusion via Cedex automated cell counters (Roche Applied Science, Indianapolis, Ind.), glucose and lactate values were measured with a ABL-805 (Radiometer Medical, Denmark) blood gas analyzer. Offline pH, dissolved oxygen (DO), and pCO2 measurements were performed with a ABL-805 (Radiometer Medical, Denmark) blood gas analyzer. Osmolality was measured on a Multi-Osmette 2430 osmometer (Precision Systems, Natick, Mass.).
# Antibody titers were measured from crude cell culture harvests on a Poros A™ (Life Technologies, Carlsbad, Calif.) affinity column using an Agilent (Santa Clara, Calif.) 1200 Series HPLC, or equivalent, operating with a low pH, step elution gradient with detection at 280 nm. Absolute concentrations were assigned with respect to reference standard calibration curves.
# (§2) 3 L scale-down model bioreactors were utilized to verify the impact of select sugars on the resulting protein glycosylation profiles. The concentration of the sucrose and tagatose was chosen to minimize any potential adverse impact on cell growth and productivity, but still facilitate a measurable modulation of the glycosylation profile. Cell culture process performance indicators were monitored and measured throughout the respective cultures. Viable cell density, cell viability, lactate, pCO2, osmolality, harvest titer, and harvest N-glycan oligosaccharide data were measured and reported.
# Two recombinant Chinese Hamster Ovary (CHO) cell lines expressing two different recombinant glycoproteins were evaluated in two different cultures vessels (shaker flasks and 3 L laboratory scale bioreactors). Cell Line 1 expressed Antibody 1, Cell Line 2 expressed Dual Variable Domain Immunoglobulin 1 (DVD 1) and Cell Line 3 expressed Antibody 2. Antibodies 1 and 2 are IgG1 proteins, and DVD 1 is an immunoglobulin with two variable domains as documented previously (Wu C. et al., (2007) Nat. Biotechnol 25(11):1290-1297). All cell lines were of CHO DUX-B11 origin based on a dhfr (dihydrofolate reductase) expression system. All cell lines were cultured in the same chemically defined basal media. Cell lines 1 and 2 were fed with the same chemically-defined feed media, but Cell Line 1 was fed media that was formulated at a 50% higher concentration. Each of the respective media were supplemented with either sucrose or tagatose to evaluate their potential impact on the resulting N-glycan oligosaccharide profile. All sugars were purchased from Sigma-Aldrich (St. Louis, Mo.). In preparation of the cultures, the cell lines were serially expanded through separate seed train inoculums to generate enough cells for inoculation.
# as §1, with “performed with an ABL-805 (Radiometer” for “performed with a ABL-805 (Radiometer”, “gas analyzer. […]” for “gas analyzer. Osmolality was measured on a Multi-Osmette 2430 osmometer (Precision Systems, Natick, Mass.).”
# Cell Line 1 [2] = assay: N-glycan oligosaccharide profiling, Cell Line 1 in 3 L laboratory-scale bioreactors; assay type: cell-based, Chinese Hamster; conditions: 50 mM supplement
# Experimental: Purified antibodies subjected to additional analytical characterization were purified using MabSelect™ Protein A (GE Healthcare, Piscataway, N.J.) using a low pH, step elution gradient, followed by buffer exchange using Corning Lifesciences (Tewksbury, Mass.) Spin Concentrator X UF columns according to the manufacturers' recommended procedures.
# Approximately 200 μg of Protein A purified samples from Cell Lines 1 and 2 were treated with N-glycanase at 37° C. overnight to remove the N-glycans from the protein. The protein was precipitated and the supernatant was taken for subsequent chemical derivatization of the reducing end of the released glycans with 2-aminobenzamide (2-AB) dye. Following the derivatization step, the excess label was removed using clean up cartridges and the samples were analyzed using normal phase HPLC with fluorescent detection. Mobile phase A was 100% acetonitrile and mobile phase B was 50 mM ammonium formate pH 4.4. The glycans were eluted from a polyamide column (Prozyme, Hayward, Calif.) using a shallow gradient. The labeled glycans were detected using a fluorescence detector with an excitation wavelength of 330 nm and an emission wavelength of 420 nm.
# as §2
# 3 L scale laboratory bioreactors were utilized to verify the impact of sucrose, tagatose, or fructose on protein glycosylation profiles. Concentrations of the sugars were chosen to minimize any potential adverse impacts on cell growth and productivity, but still facilitate a measurable impact on the glycoform profile. Cell culture process performance indicators were monitored and measured throughout the study. Viable cell density, cell viability, lactate, pCO2, osmolality, harvest titer, and harvest N-glycan oligosaccharide data was measured and reported.
structure (smiles),measurement,setting,value
"O=C(CO)[C@@H](O)[C@H](O)[C@H](O)CO [fructose, reference compound]",Osmolality,Cell Line 1 [1]; 50 mM supplement vs control,only slightly higher
same,cell viability,Cell Line 1 [1]; 50 mM supplement vs control,no impact
same,viable cell density,Cell Line 1 [1]; 50 mM supplement vs control,no impact
same,final harvest titer ratio,"Cell Line 1 [1]; 50 mM supplement, relative to unsupplemented control",0.81
same,changes in protein glycosylation compared to the control,Cell Line 1 [2],did not facilitate any significant changes in protein glycosylation
